Entries after “also recorded” stand apart in the source; their conditions may differ.

Experiment [1] concerns Fischer-344 Ratten. Description: Tele-Stereo-EEG (changes of EEG frequencies in freely moving rats). In kind it is in vivo, Ratte. The protocol: Die Veränderungen der EEG-Frequenzen nach intraperitonealer Gabe von Salzlösung (Kontrolle) bzw. verschiedener Dosen von Hesperidin (10 bis 300 mg/kg Körpergewicht sowie oral 500 mg/kg) wurden bestimmt. Ebenso wurden verschiedene Dosierungen von Hesperetin (80-320 mg/kg i.p. sowie 500 mg/kg oral untersucht.
Die Untersuchungen wurden analog der durch W. Dimpfel beschriebenen Methode (Dimpfel W Preclinical data base of pharmaco-specific rat EEG fingerprints (Tele-Stereo-EEG). Eur J Med Res (2003) 8: 199-207) folgendermaßen durchgeführt: Zwölf männlichen erwachsenen Fischer-344 Ratten (Tag-Nacht konvertiert) wurden im Alter von 6 Monaten 4 bipolar konzentrische Elektroden zusammen mit einem Mikrostecker auf einer gemeinsamen Basisplatte implantiert. Der Stecker diente der Aufnahme eines 4-Kanal-Senders zur telemetrischen Übertragung der aus frontalem Kortex, Hippokampus, Striatum und Formatio Reticularis abgeleiteten Feldpotentiale. Die Signale wurden auf einem Computer System (Software "EEG-Analyse", Betriebssystem OS Science, Laborrechner "LabTeam" der Firma MediSyst, Linden, DE) in Echtzeit einer Fast-Fourier-Transformation unterworfen und die Leistungsdichtespektren jeweils über 60 Minuten gemittelt. Die Unterteilung der Spektren in 6 verschiedene Frequenzbereiche erlaubte die Erfassung pharmako-spezifischer Veränderungen in Bezug auf die jeweils vor Applikation gemessenen Vorwerre innerhalb dieser Frequenzbänder.
Zum Applikationsprotokoll der Substanzen: die Substanzen wurden i.p. 45 Minuten nach Beginn der Messungen (Vorwert) injiziert. Fünf Minuten später wurden die Messungen wieder gestartet, mindestens über die nächsten 5 Stunden kontinuierlich analysiert und in 60-minütigen Perioden zusammengefaßt. Die Testsubstanzen wurden in einer Dosierung von 10 bis 500 mg/kg appliziert. Die experimentelle Serie wurde mit der Injektion von Salzlösung (Kontrolle), die zu keiner auffälligen Änderung führte, begonnen.
Der statistische Vergleich der Versuche zu den Ergebnissen, die nach Gabe von Salzlösung gemessen wurde, erfolgte mit Hilfe einer multivariaten Analyse nach Ahrens und Läuter (siehe H. Ahrens, J. Läuter "Mehrdimensionale Varianzanalyse" (1974), Akademie Verlag, Berlin) auf der Basis der Veränderungen innerhalb der einzelnen Frequenzbänder in allen Hirnregionen als Variablen.

In experiment [2] the test system is Pyramidenzellen im Hippokampus-Schnittpräparat. Description: Hippocampal slice in vitro: antagonism of the 4-aminopyridine-induced change of excitability. Type of experiment: cell-based, Ratte. To be noted: superfused together with 4-Aminopyridin. The text has this:
(§1) Wirkungen von Hesperidin und Hesperetin auf die Erregbarkeit der Pyramidenzellen wurden im Hippokampus-Schnittpräparat der Ratte bestimmt. Die Analyse der Wirkungen erfolgte auf drei Ebenen. Zunächst wurde anhand der Applikation von Einzelreizen die normale Erregbarkeit überprüft und anschließend nach einer sog. "Theta-burst-Stimulation" die Auswirkungen auf die Langzeitpotenzierung gemessen. Im nächsten Schritt wurde versucht, die Wirkung von Krampf auslösenden Substanzen zu antagonisieren. In einer dritten Versuchsserie wurde die Substanz eine Woche lang appliziert und dann "ex vivo" die Änderung der Erregbarkeit auf eine Provokation mit der Krampf auslösenden Substanz 3-Aminopyridin (3-AP) gemessen.
(§2) Für die Durchführung dieser Studien wurden 30 erwachsene männliche CD-Ratten verwendet. Die Isolation des Hippokampus erfolgte an äthemarkotisierten und anschließend exsanguinierten Tieren.
Das Experiment selbst wurde in einer sog. "Base Unit" mit Haas Top" (Firma Medical Systems Corp., USA) bei 35 Grad Celsius durchgeführt. Der mit Hilfe peristaltischer Pumpen (Infusomat B. Braun Melsungen AG) superfundierte Hippokampus-Schnitt lag auf einem Stück Gaze. Eingeleitetes Carbogen hielt die erforderliche Sauerstoffzufuhr der Lösung aufrecht. Die Durchflussgeschwindigkeit betrug 200 ml/h. […]

Experiment [3] relates to Pyramidenzellen des Hippokampus. Description: Hippocampal slice ex vivo after 7 days of in vivo dosing: provocation with 4-aminopyridine. To be noted: 500 mg/kg daily over 7 days in vivo, compared with placebo. More on the design: species or system Ratte. The source says:
Wirkungen von Hesperidin und Hesperetin auf die Erregbarkeit der Pyramidenzellen wurden im Hippokampus-Schnittpräparat der Ratte bestimmt. Die Analyse der Wirkungen erfolgte auf drei Ebenen. Zunächst wurde anhand der Applikation von Einzelreizen die normale Erregbarkeit überprüft und anschließend nach einer sog. "Theta-burst-Stimulation" die Auswirkungen auf die Langzeitpotenzierung gemessen. Im nächsten Schritt wurde versucht, die Wirkung von Krampf auslösenden Substanzen zu antagonisieren. […]
Dieselbe Versuchsanordnung wurde letztendlich noch einmal nach in vivo Applikation beider Substanzen in einer repetitiven Dosierung von 500 mg/kg täglich über 7 Tage im Vergleich zu Placebo angewandt (sog. "ex vivo" Design). Dabei sollte überprüft werden, ob eine repetitive Gabe zur Erregbarkeitsveränderungen der Pyramidenzellen des Hippokampus führt. […] Dieses Ergebnis ist auch ein Hinweis darauf, dass in vivo neben dem im Darm entstehenden Hesperetin auch genügend wirksames Hesperidin das Gehim erreicht. Gleichzeitig wird dadurch nochmals bestätigt, dass Hesperidin und Hesperetin ein unterschiedliches Wirkprofil haben.

Experiment [4] relates to Pyramidenzellen im Hippokampus-Schnittpräparat. Description: Hippocampal slice in vitro: population spike after single stimuli and long-term potentiation after theta-burst stimulation. Type of experiment: cell-based, Ratte. The note with it: n=6 slices; for Langzeitpotenzierung durch TBS: theta-burst stimulation, 5 bis 60 µM for Hesperidin.
Description: as §1, §2
Das Experiment selbst wurde in einer sog. "Base Unit" mit Haas Top" (Firma Medical Systems Corp., USA) bei 35 Grad Celsius durchgeführt. Der mit Hilfe peristaltischer Pumpen (Infusomat B. Braun Melsungen AG) superfundierte Hippokampus-Schnitt lag auf einem Stück Gaze. Eingeleitetes Carbogen hielt die erforderliche Sauerstoffzufuhr der Lösung aufrecht. Die Durchflussgeschwindigkeit betrug 200 ml/h.
Die Stimulation der CA2-Region (Schaffer-Kollateralen) erfolgte unter Verwendung eines Reizgenerators (Laborcomputer Labteam der Fa. MediSyst GmbH, Linden, DE) über eine Isoliereinheit mit Hilfe einer bipolar konzentrischen Stahlelektrode (Rhodes Medical Systems, USA. Die Impulsbreite betrug 200 µs, die Stromstärke konstant 200 µA. Der Reizgenerator löste im Abstand von jeweils 20 Sekunden 4 Einzelreizungen aus, die im Schnitt insgesamt 4 Populationsspikes evozierten. Die Ableitung der Antwort erfolgte in der […] Region. Das System mittelte die Reizantwort der 4 Spike-Amplituden.
Dabei wurde der Schnitt zunächst mit Kontrolllösung superfundiert. […]

Experiment [5] has as its system autosomaler dominanter nocturner Frontallappenepilepsie. Description: Therapeutic trial in one patient with drug-resistant epilepsy. Type of experiment: in vivo, Patientin. The source says:
Um das Konzept auch am Patienten zu überprüfen, wurde einer jungen unter autosomaler dominanter nocturner Frontallappenepilepsie leidenden Patientin, die selbst in Gegenwart von 3 Gramm unterschiedlicher Antiepileptika weiterkrampfte (im Mittel 20 Anfälle pro Monat) täglich 1 Gramm Hesperidin abends vor dem Einschlafen oral über einen Zeitraum von 2 Monaten verabreicht. […] Das Ergebnis der Untersuchungen ist in Abb. 12 dokumentiert.

With `COc1ccc([C@@H]2CC(=O)c3c(O)cc(O)cc3O2)cc1O` [Hesperetin], the “Veränderungen der elektrischen Hirnaktivität” value in experiment [1] (320 mg/kg i.p., after 2 hours, frontal cortex) is “Zunahmen der delta und alpha2 Aktivität”; in experiment [1] (i.p. single dose, low dose range) it was “im niedrigen Dosisbereich dem nach Gabe von Hesperidin entsprach”. The results for the “EEG-Muster im Vergleich zu Referenzmedikamenten (Diskriminanzanalyse)” value in experiment [1] (higher dose) and in experiment [1] (low doses) were “dem klassischer Antikonvulsiva ähnlich” and “wie es für die Applikation von Mitteln gegen Migräne und Schizophrenie (Metoprolol bzw. Haloperidol und Risperidon) typisch ist”, respectively. The “Änderung der Erregbarkeit der Pyramidenzellen durch die Gegenwart von 4-Aminopyridin” value in experiment [2] is recorded as “nicht jedoch von Hesperetin vermindert”. The “durch 4-Aminopyridin provozierte Erhöhung der Erregbarkeit (ex vivo)” value in experiment [3] was “nicht jedoch in den mit Placebo oder Hesperetin behandelten Tieren”.

Consider `COc1ccc([C@@H]2CC(=O)c3c(O)cc(O[C@@H]4O[C@H](CO[C@@H]5O[C@@H](C)[C@H](O)[C@@H](O)[C@H]5O)[C@@H](O)[C@H](O)[C@H]4O)cc3O2)cc1O` [Hesperidin, Hesperetin 7-rhamnoglucosid], for which the “Veränderungen der Leistungsdichte in den einzelnen Hirnregionen” value in experiment [1] (20 mg/kg i.p.) is reported as “Zunahmen der alpha1 und beta Aktivität”; in experiment [1] (40 mg/kg i.p.), “Zunahmen der elektrischen Leistung im alpha1 und beta Bereich”; in experiment [1] (300 mg/kg i.p., significant at least at P < 5%), “generellen Abfall der elektrischen Leistung”; in experiment [1] (80 und 160 mg/kg i.p., statistically significant pattern, seen over the 5 hours of the test), “Abnahmen der elektrischen Leistung im delta, theta und alpha2 Bereich”. Further, the “EEG-Muster im Vergleich zu Referenzmedikamenten (Diskriminanzanalyse)” value is “dem nach Gabe klassischer Antidepressiva” in experiment [1] (higher dose) and “wie es für die Applikation von Mitteln gegen Migräne und Schizophrenie (Metoprolol bzw. Haloperidol und Risperidon) typisch ist” in experiment [1] (low doses). Besides, in experiment [4] (single stimuli, 5 bis 60 µM), the “Amplitude des Populationsspikes bei Einzelreizung” value is given as “Unterdrückung der Pyramidenzellaktivität nach Einzelreizung; also recorded: Konzentrations-abhängigen Abfall der Amplitude des Populationsspikes”. In addition, in experiment [4], the “Langzeitpotenzierung durch TBS” value is given as “Unterdrückung der Langzeitpotenzierung; also recorded: Konzentrations-abhängig unterdrückt”. Besides, the “Änderung der Erregbarkeit der Pyramidenzellen durch die Gegenwart von 4-Aminopyridin” value in experiment [2] is “vermindert”. Further, the “durch 4-Aminopyridin provozierte Erhöhung der Erregbarkeit (ex vivo)” value in experiment [3] was “Unterdrückung der durch 4-Aminopyridin provozierten Erhöhung”. Moreover, the “Ausprägung des alpha1 Fokus im Frontallappen (Nachuntersuchung)” value in experiment [5] (1 Gramm daily orally for 2 months) is on record as “deutlich geringere Ausprägung des alphal Fokus im Frontallappen”. Moreover, in experiment [5] (1 Gramm daily orally in the evening for 2 months, baseline on average 20 seizures per month under 3 g antiepileptics), the “Häufigkeit der Anfälle” value is on record as “um die Hälfte reduziert”.

Turning to `Fc1ccc([C@@H]2CCNC[C@H]2COc2ccc3c(c2)OCO3)cc1` [Paroxetin, reference compound], in experiment [4], the “Langzeitpotenzierung durch TBS” value was “unterdrückt die Langzeitpotenzierung”.

These data come from patent publication EP1721613A1, “Hesperidin for the treatment of epilepsy, migraine, schizophrenia, depression and drug abuse” (priority 2005, dated 2006).
